Source: publication PMC6273194, “Synthesis and Evaluation of Aminothiazole-Paeonol Derivatives as Potential Anticancer Agents” (Molecules, 2016)
pIC50: −log10 of the molar value. Where two headings read alike, the source gives them in different places.

What was measured:
[1] = system: human glioblastoma (U87-MG) cells; experiment: MTT cell viability assay, U87-MG; format: cell-based; details: U-87 MG, 48 h
Procedure: (§1) Cell lines, including human gastric adenocarcinoma (AGS), human cervix adenocarcinoma (HeLa), human pancreas adenocarcinoma (PaTu8988t), human colorectal adenocarcinoma (HT-29), human glioblastoma (U87-MG), human lung adenocarcinoma (A549), mouse colon carcinoma (CT26.WT) cells and embryonic fibroblast (BALB/3T3) were purchased from Bioresource Collection and Research Center (BCRC, Taiwan) to evaluate anticancer activity of aminothiazole-paeonol derivatives. Five cell lines were cultured in different media from Gibco (Life Technologies, Grand Island, NY, USA) and Hyclone (GE Healthcare Life Science). Cells were cultured in 90% medium mixed with 10% serum at 37 °C in humidified atmosphere with 5% CO2 and grown in T-75 flask with a feeding cycle of two to three days. The composition and procedures of preparing culture media for different cell lines were followed by instruction manual of suppliers.
(§2) The different cell lines were seeded into 96-well tissue culture plates at a concentration of 5 × 10^3 cells/100 µL/well overnight. Subsequently, the cells were treated with serial concentrations of seven paeonol derivatives. After 48 h of incubation, cell viability of each cell line was determined by MTT colorimetric assay. Briefly, 100 µL of 2 mg/mL MTT reagent (Sigma-Aldrich, St. Louis, MO, USA) was added to each well and incubated for 4 h at 37 °C. Later, the medium was aspirated and 100 µL of dimethyl sulphoxide (DMSO) added to each well; finally, the OD595 of each well was measured by ELISA reader (TECAN, Wien, Austria).

[2] = system: mouse colon carcinoma (CT26.WT) cells; experiment: MTT cell viability assay, CT26.WT; format: cell-based; details: 48 h
Procedure: as §1, §2

[3] = system: human lung adenocarcinoma (A549) cells; experiment: MTT cell viability assay, A549; format: cell-based; details: A549, 48 h
Procedure: as §1, §2

[4] = system: human cervix adenocarcinoma (HeLa) cells; experiment: MTT cell viability assay, HeLa; format: cell-based; details: 48 h
Procedure: as §1, §2

[5] = system: BALB/3T3 cells; details: BALB/3T3, 72 h after treatment; ref [25],[26],[27],[28],[29],[30],[31],[32]; cited from earlier work
[6] = system: human gastric adenocarcinoma (AGS) cells; details: 24 h after treatment, ref [25],[26],[27],[28],[29],[30],[31],[32]; cited from earlier work
[7] = system: mouse colon carcinoma (CT26.WT) cells; details: 72 h after treatment, ref [25],[26],[27],[28],[29],[30],[31],[32]; cited from earlier work
[8] = system: human lung adenocarcinoma (A549) cells; details: A549, 48 h after treatment; ref [25],[26],[27],[28],[29],[30],[31],[32]; cited from earlier work
[9] = system: human cervix adenocarcinoma (HeLa) cells; details: 48 h after treatment, ref [25],[26],[27],[28],[29],[30],[31],[32]; cited from earlier work
[10] = system: human colorectal adenocarcinoma (HT-29) cells; details: HT-29, 48 h after treatment; ref [25],[26],[27],[28],[29],[30],[31],[32]; cited from earlier work
[11] = system: BALB/3T3 cells; experiment: MTT cell viability assay, embryonic fibroblast BALB/3T3; format: cell-based; details: Mus musculus, BALB/3T3 fibroblasts, 48 h
Procedure: as §1, §2

[12] = system: human glioblastoma (U87-MG) cells; details: 48 h after treatment, ref [25],[26],[27],[28],[29],[30],[31],[32]; cited from earlier work
[13] = system: human pancreas adenocarcinoma (PaTu8988t) cells; experiment: MTT cell viability assay, PaTu8988t; format: cell-based; details: PaTu 8988t, 48 h
Procedure: as §1, §2

[14] = system: human pancreas adenocarcinoma (PaTu8988t) cells; details: 48 h after treatment, ref [25],[26],[27],[28],[29],[30],[31],[32]; cited from earlier work
[15] = system: human gastric adenocarcinoma (AGS) cells; experiment: MTT cell viability assay, AGS; format: cell-based; details: 48 h
Procedure: as §1, §2

[16] = system: human colorectal adenocarcinoma (HT-29) cells; experiment: MTT cell viability assay, HT-29; format: cell-based; details: HT-29, 48 h
Procedure: as §1, §2

SMILES	pIC50 [1]	pIC50 [2]	pIC50 [3]	pIC50 [4]	pIC50 [13]	pIC50 [15]	pIC50 [16]	pIC50 [5]	pIC50 [6]	pIC50 [7]	pIC50 [8]	pIC50 [9]	pIC50 [10]	pIC50 [11]	pIC50 [12]	pIC50 [14]
O=c1[nH]cc(F)c(=O)[nH]1 [Compound 5-FU, 5-fluorouracil, reference compound]	< 4.30	5.04	< 4.30	5.66	4.90	4.36	5.14	4.89	4.10	4.21	4.99	6.63	4.71	6.00	5.31	4.95
COc1ccc(-c2csc(NS(=O)(=O)c3ccccc3)n2)c(O)c1 [Compound 13a, N-[4-(2-Hydroxy-4-methoxyphenyl)thiazol-2-yl]benzenesulfonamide]	< 4.30	< 4.30	< 4.30	< 4.30	4.51	< 4.30	4.68	–	–	–	–	–	–	< 4.30	–	–
COc1ccc(-c2csc(NS(=O)(=O)c3ccc(C)cc3)n2)c(O)c1 [Compound 13b, N-[4-(2-Hydroxy-4-methoxyphenyl)thiazol-2-yl]-4-methylbenzenesulfonamide]	< 4.30	< 4.30	< 4.30	4.56	4.41	4.66	4.85	–	–	–	–	–	–	< 4.30	–	–
COc1ccc(S(=O)(=O)Nc2nc(-c3ccc(OC)cc3O)cs2)cc1 [Compound 13c, N-[4-(2-Hydroxy-4-methoxyphenyl)thiazol-2-yl]-4-methoxybenzenesulfonamide]	4.65	5.00	< 4.30	5.24	4.80	5.40	5.36	–	–	–	–	–	–	4.49	–	–
COc1ccc(-c2csc(NS(=O)(=O)c3ccc(F)cc3)n2)c(O)c1 [Compound 13d, 4-Fluoro-N-[4-(2-hydroxy-4-methoxyphenyl)thiazol-2-yl]benzenesulfonamide]	< 4.30	< 4.30	< 4.30	4.86	4.50	5.14	4.95	–	–	–	–	–	–	< 4.30	–	–

The next lines start with results.

pIC50 [1]	pIC50 [2]	pIC50 [3]	pIC50 [4]	pIC50 [13]	pIC50 [15]	pIC50 [16]	SMILES	pIC50 [5]	pIC50 [6]	pIC50 [7]	pIC50 [8]	pIC50 [9]	pIC50 [10]	pIC50 [11]	pIC50 [12]	pIC50 [14]
< 4.30	< 4.30	< 4.30	< 4.30	< 4.30	< 4.30	4.87	COc1ccc(-c2csc(NS(=O)(=O)c3ccc(Cl)cc3)n2)c(O)c1 [Compound 13e, 4-Chloro-N-[4-(2-hydroxy-4-methoxyphenyl)thiazol-2-yl]benzenesulfonamide]	–	–	–	–	–	–	< 4.30	–	–
< 4.30	< 4.30	< 4.30	4.79	4.64	< 4.30	4.96	COc1ccc(-c2csc(NS(=O)(=O)c3ccc(Br)cc3)n2)c(O)c1 [Compound 13f, 4-Bromo-N-[4-(2-hydroxy-4-methoxyphenyl)thiazol-2-yl]benzenesulfonamide]	–	–	–	–	–	–	< 4.30	–	–
< 4.30	4.52	< 4.30	< 4.30	< 4.30	< 4.30	4.32	COc1ccc(-c2csc(NS(=O)(=O)c3ccc([N+](=O)[O-])cc3)n2)c(O)c1 [Compound 13g, N-[4-(2-Hydroxy-4-methoxyphenyl)thiazol-2-yl]-4-nitrobenzenesulfonamide]	–	–	–	–	–	–	4.49	–	–
